Test results as given in patent publication US20090131503A1, “3,5 - SUBSTITUTED INDOLE COMPOUNDS HAVING NOS AND NOREPINEPHRINE REUPTAKE INHIBITORY ACTIVITY” (priority 2007, published 2009).
“Also recorded” adds a separate entry of the source. Counter-ions that a name gives are not always drawn. Like-named read-outs stand apart in the source and are kept apart here.

What was measured:
[1] = molecular target: T1, human NET (Homo sapiens, UniProt P23975); experiment: Human norepinephrine transporter assay, [3H]nisoxetine binding to cell membrane homogenates
T1 construct: expressed in transfected cells
Description: Human Norepinephrine Transporter Assay
Nonspecific binding was determined in the presence of 1 μM desipramine. Following incubation, the samples were filtered rapidly under vacuum through glass fiber filters (GF/B, Packard) presoaked with 0.3% PEI, and rinsed several times with ice-cold 50 mM Tris-HCl using a 96-sample cell harvester (Unifilter, Packard). The filters were dried then counted for radioactivity in a scintillation counter (Topcount, Packard) using a scintillation cocktail (Microscint 0, Packard). The results were expressed as a percent inhibition of the control radioligand specific binding. The standard reference compound was protriptyline, which was tested in each experiment at several concentrations to obtain a competition curve from which its IC50 is calculated. Typical assay volumes were 250 μL in 96-well plate and compounds are solubilized in water.

[2] = molecular target: T2, Nitric oxide synthase (neuronal, human recombinant) nNOS (Homo sapiens, UniProt P29475); experiment: nNOS (human) enzyme assay, [3H]-L-arginine to L-citrulline conversion; assay type: biochemical
T2 construct: purchased Axxora LLC ALX-201-068
Description: (§3) Primary stock solutions of test compounds at a concentration of 6 mM are prepared. The primary stock solutions of each test compound are prepared freshly in distilled water on the day of study. […] Concentration range of test compound utilized for nNOS are 0.001 to 300 μM and for eNOS are 0.003 to 1000 μM. The vehicle of the test compound or inhibitor is used as blank control. […] The IC50 concentration of L-NAME was run in parallel as a control.
(§4) All incubations are performed in duplicate:
Total reaction volume is 60 μL.
(§5) Mix using a vortex mixer and incubate the above reaction mixture at 37° C. in an incubator for 30 mins.
(§6) Add 400 μL of ice-cold Stop Buffer at the end of the incubation period to stop the reaction. (The EDTA in the Stop Buffer chelates all of the available calcium.) Mix using a vortex mixer and transfer the reaction samples to spin cups and centrifuge using a microcentrifuge, at 13,000 rpm for 30 sec. at room temperature.
(§7) Remove the spin cups from the holder and transfer 450 μL of eluate (containing the unbound L-citrulline) to scintillation vials. Add 3 mL of scintillation fluid and quantify the radioactivity in a liquid scintillation counter.
(§8) Data is analyzed using a Sigmoidal dose-response (variable slope) curve to determine the IC50 value of the test compound.
(§9) Y=Bottom+(Top−Bottom)/(1+10̂((Log IC50−X)*Hill Slope))

[3] = molecular target: T3, Nitric oxide synthase (endothelial, human recombinant) eNOS (Homo sapiens, UniProt P29474); experiment: eNOS (human) enzyme assay, [3H]-L-arginine to L-citrulline conversion; assay type: biochemical
T3 construct: purchased Axxora LLC ALX-201-070
Description: as §3, §4
Total reaction volume is 60 μL.
as §5, §6, §7, §8, §9

[4] = system: L5/L6 spinal nerve ligation model of neuropathic pain (Chung model); experiment: Chung L5/L6 spinal nerve ligation model, thermal hyperalgesia; assay type: in vivo, rat; conditions: rats, 30 mg/kg i.p., one dose
Description: (§1) The L5/L6 spinal nerve was surgically ligated and animals allowed to recover for a period of 7-10 days. During this period animals develop neuropathic pain. The reduction of paw withdrawal latency after an infrared thermal stimulus (post-SNL) was measured following the induction period for comparison with pre-surgery baseline levels (BL). Following drug administration, thermal hyperalgesia was measured at various time points.
(§2) (a) Chung Model of Injury-induced Neuropathic-like Pain: The experimental designs for the Chung Spinal Nerve Ligation SNL Model assay for neuropathic pain are depicted in FIGS. 1a and 1b. Nerve ligation injury was performed according to the method described by Kim and Chung (Kim and Chung, Pain 50:355-363, 1992). This technique produces signs of neuropathic dysesthesias, including tactile allodynia, thermal hyperalgesia, and guarding of the affected paw. Rats were anesthetized with halothane, and the vertebrae over the L4 to S2 region were exposed. The L5 and L6 spinal nerves were exposed, carefully isolated, and tightly ligated with 4-0 silk sutures distal to the DRG. After ensuring homeostatic stability, the wounds were sutured, and the animals allowed to recover in individual cages. Sham-operated rats were prepared in an identical fashion except that the L5/L6 spinal nerves were not ligated. […]

[5] = system: L5/L6 spinal nerve ligation model of neuropathic pain (Chung model); experiment: Chung L5/L6 spinal nerve ligation model, tactile allodynia; assay type: in vivo, rat; conditions: rats, 30 mg/kg i.p., one dose
Description: as §1, with “tactile thresholds” for “paw withdrawal latency after an infrared thermal stimulus”, “tactile allodynia” for “thermal hyperalgesia”, “points with calibrated von-Frey filaments.” for “points.”
as §2

[6] = system: migraine; conditions: open pilot study; cited from earlier work
[7] = system: migraine; conditions: migraine patients, single i.v. administration; cited from earlier work
[8] = Table 2, compounds tested as hydrochloride salts, read-out: IC50, Human NET activity
[9] = Table 2, compounds tested as hydrochloride salts
[10] = IC50, Human NET activity, Table 2, compounds tested as hydrochloride salts

T1 sequence (P23975 whole entry): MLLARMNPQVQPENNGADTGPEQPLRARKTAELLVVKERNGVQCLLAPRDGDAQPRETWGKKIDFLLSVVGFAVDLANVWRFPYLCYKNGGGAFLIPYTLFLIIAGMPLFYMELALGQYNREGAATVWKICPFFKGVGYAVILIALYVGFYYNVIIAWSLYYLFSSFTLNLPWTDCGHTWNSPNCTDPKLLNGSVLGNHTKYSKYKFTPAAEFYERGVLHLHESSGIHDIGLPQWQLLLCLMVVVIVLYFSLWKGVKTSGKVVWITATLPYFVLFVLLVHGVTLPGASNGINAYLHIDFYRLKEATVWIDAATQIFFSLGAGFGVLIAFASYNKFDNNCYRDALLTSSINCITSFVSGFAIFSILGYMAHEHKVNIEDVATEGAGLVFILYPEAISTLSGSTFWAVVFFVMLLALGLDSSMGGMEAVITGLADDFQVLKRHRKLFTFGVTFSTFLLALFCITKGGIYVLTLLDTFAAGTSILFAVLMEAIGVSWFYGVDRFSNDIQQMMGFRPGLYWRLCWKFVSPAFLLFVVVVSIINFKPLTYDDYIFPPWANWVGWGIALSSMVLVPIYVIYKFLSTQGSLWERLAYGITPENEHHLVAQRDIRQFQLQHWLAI
T3 sequence (P29474 whole entry): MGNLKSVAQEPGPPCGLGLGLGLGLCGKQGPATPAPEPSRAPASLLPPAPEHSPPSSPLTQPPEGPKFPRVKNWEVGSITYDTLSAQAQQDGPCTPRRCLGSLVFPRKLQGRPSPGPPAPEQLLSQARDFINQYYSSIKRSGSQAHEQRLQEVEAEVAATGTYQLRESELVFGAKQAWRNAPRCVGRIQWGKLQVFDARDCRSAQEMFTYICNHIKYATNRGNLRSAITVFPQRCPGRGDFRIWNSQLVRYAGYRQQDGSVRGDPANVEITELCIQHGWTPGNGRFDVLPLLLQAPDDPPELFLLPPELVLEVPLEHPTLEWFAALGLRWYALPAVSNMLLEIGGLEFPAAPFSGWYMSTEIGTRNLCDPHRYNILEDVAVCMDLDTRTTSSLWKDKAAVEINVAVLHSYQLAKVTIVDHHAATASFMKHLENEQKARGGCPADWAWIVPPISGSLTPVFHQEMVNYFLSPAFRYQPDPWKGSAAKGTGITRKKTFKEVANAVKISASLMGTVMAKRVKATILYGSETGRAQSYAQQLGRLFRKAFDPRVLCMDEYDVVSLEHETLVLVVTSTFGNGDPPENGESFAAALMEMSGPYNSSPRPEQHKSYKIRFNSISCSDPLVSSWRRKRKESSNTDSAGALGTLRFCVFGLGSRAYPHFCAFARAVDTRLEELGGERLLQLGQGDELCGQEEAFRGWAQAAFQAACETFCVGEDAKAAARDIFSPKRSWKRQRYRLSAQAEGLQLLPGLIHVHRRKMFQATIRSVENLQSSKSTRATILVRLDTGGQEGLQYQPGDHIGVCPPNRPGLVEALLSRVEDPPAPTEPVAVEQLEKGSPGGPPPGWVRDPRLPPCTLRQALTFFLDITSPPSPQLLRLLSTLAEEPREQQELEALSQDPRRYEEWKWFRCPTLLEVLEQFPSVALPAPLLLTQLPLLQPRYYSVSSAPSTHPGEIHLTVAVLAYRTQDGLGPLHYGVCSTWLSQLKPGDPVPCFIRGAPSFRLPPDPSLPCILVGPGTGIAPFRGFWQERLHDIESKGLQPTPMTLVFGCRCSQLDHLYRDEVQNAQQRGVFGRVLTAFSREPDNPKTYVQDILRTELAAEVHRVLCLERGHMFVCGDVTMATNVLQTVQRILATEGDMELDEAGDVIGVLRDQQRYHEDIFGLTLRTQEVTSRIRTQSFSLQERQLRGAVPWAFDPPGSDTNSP
T2 sequence (P29475 whole entry): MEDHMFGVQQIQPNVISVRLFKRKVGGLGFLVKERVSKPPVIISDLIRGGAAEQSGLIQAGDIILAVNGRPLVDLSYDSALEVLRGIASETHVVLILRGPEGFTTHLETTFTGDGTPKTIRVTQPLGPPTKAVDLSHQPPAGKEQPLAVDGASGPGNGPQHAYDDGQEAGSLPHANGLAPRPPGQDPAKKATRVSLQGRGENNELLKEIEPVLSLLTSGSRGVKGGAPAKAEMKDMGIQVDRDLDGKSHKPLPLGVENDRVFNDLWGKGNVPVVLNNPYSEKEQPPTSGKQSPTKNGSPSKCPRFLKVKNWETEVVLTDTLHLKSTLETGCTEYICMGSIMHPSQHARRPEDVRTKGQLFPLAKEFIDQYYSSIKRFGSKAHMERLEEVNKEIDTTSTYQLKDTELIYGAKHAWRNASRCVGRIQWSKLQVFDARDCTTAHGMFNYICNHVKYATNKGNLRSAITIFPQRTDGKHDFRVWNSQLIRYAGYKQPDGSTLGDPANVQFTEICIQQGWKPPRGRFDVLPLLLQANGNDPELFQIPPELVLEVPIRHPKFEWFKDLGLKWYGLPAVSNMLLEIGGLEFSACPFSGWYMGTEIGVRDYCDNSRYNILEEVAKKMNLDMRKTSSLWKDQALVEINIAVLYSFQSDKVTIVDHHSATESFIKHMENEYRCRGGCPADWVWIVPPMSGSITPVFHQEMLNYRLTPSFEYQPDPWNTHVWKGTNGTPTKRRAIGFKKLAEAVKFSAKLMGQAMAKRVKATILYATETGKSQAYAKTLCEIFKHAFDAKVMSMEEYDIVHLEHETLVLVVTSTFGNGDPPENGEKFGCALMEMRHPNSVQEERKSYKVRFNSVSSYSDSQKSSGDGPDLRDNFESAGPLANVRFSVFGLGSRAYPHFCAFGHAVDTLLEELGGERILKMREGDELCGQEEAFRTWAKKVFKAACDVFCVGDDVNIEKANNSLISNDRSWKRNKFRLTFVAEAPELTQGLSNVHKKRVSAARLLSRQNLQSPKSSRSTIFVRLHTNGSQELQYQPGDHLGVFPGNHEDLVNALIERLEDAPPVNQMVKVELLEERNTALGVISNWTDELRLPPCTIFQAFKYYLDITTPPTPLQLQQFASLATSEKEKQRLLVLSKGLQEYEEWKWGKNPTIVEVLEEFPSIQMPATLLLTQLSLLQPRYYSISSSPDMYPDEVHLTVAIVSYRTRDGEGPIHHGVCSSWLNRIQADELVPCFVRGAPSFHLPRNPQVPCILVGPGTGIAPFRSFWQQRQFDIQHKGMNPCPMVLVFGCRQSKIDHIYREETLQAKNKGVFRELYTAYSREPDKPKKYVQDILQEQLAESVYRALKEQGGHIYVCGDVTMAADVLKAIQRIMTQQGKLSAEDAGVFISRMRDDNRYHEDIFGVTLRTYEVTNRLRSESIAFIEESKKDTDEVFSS

Row | SMILES | IC50 [1, 8] [nM] | IC50 [2, 9] [nM] | IC50 [3, 9] [nM] | also measured
1 | CCN[C@H]1CC[C@H](c2c[nH]c3ccc(NC(=N)c4cccs4)cc32)CC1 (single isomer, unassigned) [Compound 5a, trans-N-(3-(4-(Ethylamino)cyclohexyl)-1H-indol-5-yl)thiophene-2-carboximidamide] | 2800 |  |  | 
2 | CCNC1CCC(c2c[nH]c3ccc(NC(=N)c4cccs4)cc23)C1 (mixture of isomers) [Compound 11, N-(3-(3-(ethylamino)cyclopentyl)-1H-indol-5-yl)thiophene-2-carboximidamide] |  |  |  | IC50 ([2]; Table 3): 257 nM; IC50 ([3]; Table 3): 14300 nM
3 | CN(C)C1CC=C(c2c[nH]c3ccc(NC(=N)c4cccs4)cc23)CC1 (racemic) [(±)-2, N-(3-(4-(dimethylamino)cyclohex-1-enyl)-1H-indol-5-yl)thiophene-2-carboximidamide] |  | 3000 | 51400 | IC50 [1, 10]: 550 nM
4 | CN[C@H]1CC[C@H](c2c[nH]c3ccc(NC(=N)c4cccs4)cc32)CC1 [Compound 1b, N-(3-(4-(Methylamino)cyclohexyl)-1H-indol-5-yl)thiophene-2-carboximidamide] | 2000 |  |  | 
5 | CNC1CCCC(c2c[nH]c3ccc(NC(=N)c4cccs4)cc23)C1 (single isomer, unassigned) [Compound 7a, N-(3-(3-(Methylamino)cyclohexyl)-1H-indol-5-yl)thiophene-2-carboximidamide dihydrochloride [(+)-cis-enantiomer]] |  |  |  | IC50 ([1]; IC50, Human NET, Table 3): 1000 nM; reversal of thermal hyperalgesia (antihyperalgesic effect) [4]: clear antihyperalgesic effect; reversal of thermal hyperalgesia (antihyperalgesic effect) ([4]; listed as (+)−7a): reversal of thermal hyperalgesia; reversal of tactile allodynia (antiallodynic effect) [5]: reversal of tactile hyperthesia; also recorded: pronounced antiallodynic effect; reversal of tactile allodynia (antiallodynic effect) ([5]; listed as (+)−7a): reversal of tactile allodynia; IC50 ([3]; Table 3): 49300 nM
6 | CCNC1CCCC(c2c[nH]c3ccc(NC(=N)c4cccs4)cc23)C1 (racemic) [(±)-10, N-(3-(3-(ethylamino)cyclohexyl)-1H-indol-5-yl)thiophene-2-carboximidamide] |  |  |  | IC50 ([1]; IC50, Human NET, Table 3): 1700 nM
7 | CCNC1CCC(c2c[nH]c3ccc(NC(=N)c4cccs4)cc23)CC1 (mixture of isomers) [Compound 5, N-(3-(4-(ethylamino)cyclohexyl)-1H-indol-5-yl)thiophene-2-carboximidamide] | 270 |  |  | 
8 | CNC1CCCC(c2c[nH]c3ccc(NC(=N)c4cccs4)cc23)C1 (racemic) [(±)-8, N-(3-(3-(methylamino)cyclohexyl)-1H-indol-5-yl)thiophene-2-carboximidamide] |  |  |  | IC50 ([1]; IC50, Human NET, Table 3): 880 nM; IC50 ([3]; Table 3): 7760 nM
9 | CCNC1CC=C(c2c[nH]c3ccc(NC(=N)c4cccs4)cc23)CC1 (racemic) [(±)-6, N-(3-(4-(ethylamino)cyclohex-1-enyl)-1H-indol-5-yl)thiophene-2-carboximidamide] | 280 | 1420 | 40300 | 
10 | CN(C)C1CCC(c2c[nH]c3ccc(NC(=N)c4cccs4)cc23)CC1 (stereo not drawn) [Compound 4, N-(3-(4-(dimethylamino)cyclohexyl)-1H-indol-5-yl)thiophene-2-carboximidamide] |  | 3440 | 31800 | IC50 [1, 10]: 190 nM
11 | CNC1CCCC(c2c[nH]c3ccc(NC(=N)c4cccs4)cc23)C1 (single isomer, unassigned) [(±)-7, N-(3-(-3-(Methylamino)cyclohexyl)-1H-indol-5-yl)thiophene-2-carboximidamide] |  |  |  | IC50 ([1]; IC50, Human NET, Table 3): 2500 nM; IC50 ([3]; Table 3): 77600 nM
12 | CNC1CCC(c2c[nH]c3ccc(NC(=N)c4cccs4)cc23)CC1 (mixture of isomers) [Compound 1, N-(3-(4-(methylamino)cyclohexyl)-1H-indol-5-yl)thiophene-2-carboximidamide] | 520 |  |  | 
13 | C/C1=C2/[N-][C@H]([C@H](CC(N)=O)[C@@]2(C)CCC(=O)NC[C@@H](C)OP(=O)([O-])O[C@H]2[C@@H](O)[C@@H](n3cnc4cc(C)c(C)cc43)O[C@@H]2CO)[C@]2(C)N=C(/C(C)=C3N=C(/C=C4N=C1[C@@H](CCC(N)=O)C\4(C)C)[C@@H](CCC(N)=O)[C@]\3(C)CC(N)=O)[C@@H](CCC(N)=O)[C@]2(C)CC(N)=O.[Co+3].[OH-] [hydroxycobalamin] |  |  |  | patients with a reduction in the frequency of migraine attack of 50% [6]: 53%
14 | CN(C)C1CC=C(c2c[nH]c3ccc(NC(=N)c4cccs4)cc23)CC1 (single isomer, unassigned) [Compound 2a, N-(3-(4-(Dimethylamino)cyclohex-1-enyl)-1H-indol-5-yl)thiophene-2-carboximidamide] |  | 865 | 47100 | IC50 [1, 10]: 1100 nM
15 | CCN[C@H]1CC[C@@H](c2c[nH]c3ccc(NC(=N)c4cccs4)cc32)CC1 (single isomer, unassigned) [Compound 5b, cis-N-(3-(4-(Ethylamino)cyclohexyl)-1H-indol-5-yl) thiophene-2-carboximidamide] | 380 |  |  | 
16 | CNC(=N)NCCC[C@H](N)C(=O)O [L-NMMA, N^G-monomethyl-L-arginine] |  |  |  | response rate [7]: 67%
17 | CNC1CC=C(c2c[nH]c3ccc(NC(=N)c4cccs4)cc23)CC1 (single isomer, unassigned) [Compound 3a, N-(3-(4-(Methylamino)cyclohex-1-enyl)-1H-indol-5-yl)thiophene-2-carboximidamide] | 1100 | 439 | 53400 | 
18 | CN(C)C1CC=C(c2c[nH]c3ccc(NC(=N)c4cccs4)cc23)CC1 (single isomer, unassigned) [Compound 2b, N-(3-(4-(Dimethylamino)cyclohex-1-enyl)-1H-indol-5-yl)thiophene-2-carboximidamide] |  | 839 | 96000 | IC50 [1, 10]: 960 nM
19 | CNC1CCCC(c2c[nH]c3ccc(NC(=N)c4cccs4)cc23)C1 (single isomer, unassigned) [Compound 7b, N-(3-(3-(Methylamino)cyclohexyl)-1H-indol-5-yl)thiophene-2-carboximidamide dihydrochloride [(−)-cis-enantiomer]] |  |  |  | IC50 ([1]; IC50, Human NET, Table 3): 5200 nM; IC50 ([3]; Table 3): 75000 nM
20 | CNC1CC=C(c2c[nH]c3ccc(NC(=N)c4cccs4)cc23)CC1 (single isomer, unassigned) [Compound 3b, N-(3-(4-(Methylamino)cyclohex-1-enyl)-1H-indol-5-yl)thiophene-2-carboximidamide] | 1100 | 537 | 40900 | 
21 | CN[C@H]1CC[C@@H](c2c[nH]c3ccc(NC(=N)c4cccs4)cc32)CC1 [Compound 1a, N-(3-(4-(Methylamino)cyclohexyl)-1H-indol-5-yl)thiophene-2-carboximidamide] | 400 |  |  | 
22 | CNC1CC=C(c2c[nH]c3ccc(NC(=N)c4cccs4)cc23)CC1 (racemic) [(±)-3, N-(3-(4-(methylamino)cyclohex-1-enyl)-1H-indol-5-yl)thiophene-2-carboximidamide] | 1300 | 1730 | 32000 | 
23 | CCNC1CCCC(c2c[nH]c3ccc(NC(=N)c4cccs4)cc23)C1 (racemic) [(±)-9, N-(3-(3-(ethylamino)cyclohexyl)-1H-indol-5-yl)thiophene-2-carboximidamide] |  |  |  | IC50 ([1]; IC50, Human NET, Table 3): 760 nM
